{"source": "patent US11136551B2", "about": "“In vitro method of differentiating a human pluripotent stem cell population into a cardiomyocyte cell population” (Ncardia B.V., priority 2015, dated 2021)", "key": {"[1]": {"system": "NKX2-5-GFP reporter stem cells", "assay": "Percentage of cardiomyocytes by flow cytometry of GFP positive cells at day 14", "assay_type": "cell-based, human", "details": "FIG. 3, reduction of IWP-L6 from 2 microMolar to 0.25 microMolar", "protocol": "For differentiation, cells were seeded in 12-well plates at density of 60,000 cells per well or a split ratio that was empirically determined to give 30-80% confluence after 4 days. Culture media was […] days with a differentiation media as disclosed herein, for example containing 46.5% IMDM (Gibco 21056), 0.25% Bovostar BSA, 46.5% Ham's F12 with Glutamax, 2 mM Glutamax, 450 nM […], 0.05 mg/ml ascorbic acid, 0.5% 5000 U/ml Pen/Strep (Gibco 12070), 0.01% 1000* Trace elements mix B (Cellgro 99-176-CL), 0.1% 1000* Trace elements mix C (Cellgro 99-176-CL). In several experiments 0.1% ITS-x was used from day 4-14, i.e. during differentiation of the cells. Cell numbers were determined with a Fuchs-Rosenthal counting chamber. […] Cells were counted and number of cells was determined using following equations: cells/ml=average count per square×dilution factor×5000 total cells=cells/ml×total original volume of cell suspension from which sample was taken. […] GFP fluorescence reports the expression of the endogenous NKX2.5 gene and enables identification/quantification of hPSC-derived cardiomyocytes during differentiation. Method of Measuring TNNT2 (Using FACS) The percentage TNNT2 expressing cells was measured by flow cytometric analysis. […] Percentage of cardiomyocytes was determined at day 14 of differentiation using flow cytometry for detection/quantification of GFP positive cells. […]"}, "hIPSC lines": {"system": "hIPSC lines", "assay": "Percentage of cardiomyocytes by flow cytometry for Troponin-T (TNNT-2) at day 14", "assay_type": "cell-based, human", "details": "for differentiation efficiency (TNNT-2 positive cells): FIG. 5, day 14", "protocol": "For differentiation, cells were seeded in 12-well plates at density of 60,000 cells per well or a split ratio that was empirically determined to give 30-80% confluence after 4 days. Culture media was […] days with a differentiation media as disclosed herein, for example containing 46.5% IMDM (Gibco 21056), 0.25% Bovostar BSA, 46.5% Ham's F12 with Glutamax, 2 mM Glutamax, 450 nM […], 0.05 mg/ml ascorbic acid, 0.5% 5000 U/ml Pen/Strep (Gibco 12070), 0.01% 1000* Trace elements mix B (Cellgro 99-176-CL), 0.1% 1000* Trace elements mix C (Cellgro 99-176-CL). In several experiments 0.1% ITS-x was used from day 4-14, i.e. during differentiation of the cells. Cell numbers were determined with a Fuchs-Rosenthal counting chamber. Briefly, cells grown in monolayer cultures were detach from surface of plate using TrypLETM Select Enzyme (Life Technologies). A uniform cell suspension was transferred to the edge of hemocytometer counting chamber. Cells were counted and number of cells was determined using following equations: cells/ml=average count per square×dilution factor×5000 total cells=cells/ml×total original volume of cell suspension from which sample was taken. Method of Measuring NKX2.5 NKX-GFP reporter hESC and iPSC cells have been described previously. These cells express the fluorescent protein GFP under the control of the endogenous NKX2-5 promoter. GFP+ve cells mark cardiomyocytes (Elliott D A et al. Nat. Methods, 8 (2011), pp. 1037-1040; van den Berg C W et al., Development. 2015 Jul. 24. pii: dev.123810. [Epub ahead of print]). NKX 2.5 is transcription factor essential for heart development and it is expressed in the heart throughout life. GFP fluorescence reports the expression of the endogenous NKX2.5 gene and enables identification/quantification of hPSC-derived cardiomyocytes during differentiation. Method of Measuring TNNT2 (Using FACS) The percentage TNNT2 expressing cells was measured by flow cytometric analysis. Briefly, cells were dissociated with TrypLETM Select Enzyme (Life Technologies), washed with PBS, fixed and permeabilized with FIX & PERM® Cell Fixation and Permeabilization Kit (Life Technologies). Samples were incubated with Troponin T (TNNT2), Cardiac Isoform Ab-1, Mouse Monoclonal Antibody (ThermoFisher, MS-295-P1; at 1:1000 dilution) followed by incubation with secondary antibody Donkey Anti-mouse APC (Jackson Immuno, 715-136-151; at 1:500 dilution) both diluted in Fix&Perm Medium B. Samples were analyzed on a NovocyteTM Flow Cytometer (ACEA Bioscicences) or a MACSQuant VYB instrument (Miltenyi Biotech). […] Two […] cultured on feeders in KOSR (InvitroGen)/FGF supplemented DMEM-F12. To start differentiation, cells were dissociated using Accutase and resuspended in mTesR at a concentration of 60,000/ml cells, the cell suspension was seeded onto Matrigel coated 12-well plates. Cells were maintained for 4 days before onset of differentiation. Cells were treated for 2 days with 5 microMolar CHIR99021, followed by 2 days culture in the presence of specific Wnt inhibiting small molecules, next the cells were cultured for 10 days in differentiation medium. Percentage of cardiomyocytes (FIG. 4A; % TNNT2 positive cells at day 14) was determined at day 14 of differentiation using flow cytometry for the pan-cardiac marker Troponin-T (TNNT-2). […] Presence and absence or concentration have no significant effect on the total number of cells (FIG. 4B; cell count at day 14, in million cells/well). […]"}, "dishevelled 2 (Dvl2)": {"system": "dishevelled 2 (Dvl2)", "details": "HEK293 cells; cited from earlier work"}, "[2]": {"system": "human pluripotent stem cells", "assay": "In vitro differentiation of human pluripotent stem cells into cardiomyocytes: yield and progress of differentiation", "assay_type": "cell-based", "details": "in combination with XAV-939, relative to IWP-L6", "protocol": "IGF may be added during any stage of the method of differentiating the human pluripotent stem cell population. IGF may, for example, be provided to the human pluripotent stem cell population immediately after plating or passaging the cells (i.e. after transferring of a small number of cells into a new vessel for cultivating) and before, for example, step a) is performed (the contacting of the cells with at least the Wnt-signaling agonist), or before step b) is performed (the contacting of the cells with XAV-939 and IWP-L6 and/or C-59). […]\nFor differentiation, cells were seeded in 12-well plates at density of 60,000 cells per well or a split ratio that was empirically determined to give 30-80% confluence after 4 days. […]\nCell numbers were determined with a Fuchs-Rosenthal counting chamber. […] Cells were counted and number of cells was determined using following equations: cells/ml=average count per square×dilution factor×5000 total cells=cells/ml×total original volume of cell suspension from which sample was taken. […] GFP fluorescence reports the expression of the endogenous NKX2.5 gene and enables identification/quantification of hPSC-derived cardiomyocytes during differentiation. Method of Measuring TNNT2 (Using FACS) The percentage TNNT2 expressing cells was measured by flow cytometric analysis. […]"}}, "data": [{"smiles": "O=C(CSc1nc2c(c(=O)n1-c1ccccc1)SCC2)Nc1ccc(-c2ccccc2)cn1", "note": "[IWP-L6, 2-[(4-oxo-3-phenyl-6,7-dihydrothieno[3,2-d]pyrimidin-2-yl)sulfanyl]-N-(5-phenylpyridin-2-yl)acetamide]", "values": [{"measurement": "differentiation efficiency (GFP positive cells)", "setting": "[1]", "result": "increases the differentiation efficiency even further"}, {"measurement": "differentiation (% TNNT2 positive cells at day 14)", "setting": "hIPSC lines; FIG. 4A, addition of IWP-L6 at 0.25 microMolar to XAV939", "result": "further improves the differentiation"}, {"measurement": "differentiation efficiency (TNNT-2 positive cells)", "setting": "hIPSC lines; alone", "result": "about 70%"}, {"measurement": "phosphorylation of dishevelled 2 (Dvl2)", "setting": "dishevelled 2 (Dvl2)", "result": "suppress phosphorylation of dishevelled 2 (Dvl2)"}]}, {"smiles": "Cc1cc(-c2ccc(CC(=O)Nc3ccc(-c4cccnc4)cc3)cc2)ccn1", "note": "[C59, 2-[4-(2-methylpyridin-4-yl)phenyl]-N-(4-pyridin-3-ylphenyl)acetamide]", "values": [{"measurement": "toxicity to the human pluripotent stem cells", "setting": "[2]", "result": "more toxic"}, {"measurement": "yield of cell obtained with the method", "setting": "[2]; data not shown", "result": "reduced yield"}]}, {"smiles": "O=c1[nH]c(-c2ccc(C(F)(F)F)cc2)nc2c1CSCC2", "note": "[XAV-939, 3,5,7,8-Tetrahydro-2-[4-(trifluoromethyl)phenyl]-4H-thiopyrano[4,3-d]pyrimidin-4-one]", "values": [{"measurement": "differentiation efficiency (% TNNT2 positive cells at day 14)", "setting": "hIPSC lines; FIG. 4A, further increase of concentration above 5 microMolar", "result": "reduces differentiation efficiency"}, {"measurement": "optimal concentration (% TNNT2 positive cells at day 14)", "setting": "hIPSC lines; FIG. 4A, titration of XAV-939, two hIPSC lines", "result": 5, "unit": "microMolar"}, {"measurement": "differentiation efficiency (TNNT-2 positive cells)", "setting": "hIPSC lines; addition of XAV939 to IWP-L6", "result": "further increased"}]}]}
